The values that follow come from BindingDB's records for PubMed 1706470 (Abbott Laboratories, 1991).

Molecules are shown by their SMILES.

This test deals with T1, Gastrin/cholecystokinin type B receptor (Cavia porcellus, UniProt H0VZC5).
T1 sequence (H0VZC5 whole entry): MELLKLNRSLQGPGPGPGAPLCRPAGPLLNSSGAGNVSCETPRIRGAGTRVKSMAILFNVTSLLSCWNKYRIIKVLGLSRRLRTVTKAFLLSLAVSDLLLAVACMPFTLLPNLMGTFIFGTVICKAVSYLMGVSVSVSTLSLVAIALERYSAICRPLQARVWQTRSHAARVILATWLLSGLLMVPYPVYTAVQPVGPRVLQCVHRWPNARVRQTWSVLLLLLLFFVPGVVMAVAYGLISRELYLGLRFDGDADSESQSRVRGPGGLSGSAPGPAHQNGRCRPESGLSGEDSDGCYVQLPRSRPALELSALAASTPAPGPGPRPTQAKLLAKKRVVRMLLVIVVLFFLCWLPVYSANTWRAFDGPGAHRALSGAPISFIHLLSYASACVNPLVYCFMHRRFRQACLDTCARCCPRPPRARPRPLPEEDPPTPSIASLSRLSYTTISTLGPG

As for `CC(C)(C)OC(=O)NC(Cc1c[nH]c2ccccc12)C(=O)N(C(=O)C(N)Cc1ccccc1)C(=O)C(CC(=O)O)NC(=O)C(N)CCCCNC(=O)OCc1ccccc1` (stereo unspecified) [A-57282], the Ki (usually a dissociation constant, usually derived from enzyme kinetics or from competition with a known ligand) was found to be 510 nM.
